What all share (assay): NCI tumour cell line growth inhibition, 48 h
Experiment [1] deals with MDA-MB-231 breast.
The test system of experiment [2] is HS 578T breast.
Experiment [3] deals with RPMI-8226 leukemia.
Experiment [4] concerns U251 CNS.
Experiment [5] deals with HOP-92 NSCLC.
For experiment [6], the system named is NCI-H23 lung.
Experiment [7] relates to MDA-MB-435.
Experiment [8] has as its system M14 melanoma.
Experiment [9] has as its system MALME-3M melanoma.
Experiment [10] deals with SNB-19 CNS.
For experiment [11], the system named is OVCAR-5 ovarian.
Experiment [12] deals with CCRF-CEM leukemia.
Experiment [13] has as its system SW-620 colon.
For experiment [14], the system named is HOP-62 NSCLC.
The subject of experiment [15] is ACHN renal.
In experiment [16] the test system is RXF 393 renal.

Structures are written as SMILES.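 Five compound concentrations were applied to cells in 96-well plates for 48 hours; endpoints were derived by simple linear interpolation of the resulting dose-response curve. The concentration for full growth arrest is given as TGI.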

For `CC1(C)CC(=O)/C(=C/C2CCNC2=S)C(=O)N1` (configuration not stated), the TGI in experiment [1], in [2], in [3], in experiment [4], in experiment [5] and in [6] was above 100 µM throughout. Moreover, the TGI in [7], in experiment [8], in experiment [9], in experiment [10], in experiment [11] and in experiment [12] was above 100 µM throughout. Besides, the TGI in experiment [13], in [14] and in [15] was above 100 µM throughout.

With `CCOC(=O)N1CCN(c2c(C)nc(C)[nH]c2=O)CC1`, the TGI in experiment [1], in experiment [2], in experiment [3], in [4], in experiment [5] and in experiment [6] was above 100 µM each time. For the same compound, the TGI in experiment [7], in experiment [16], in [8], in experiment [9], in experiment [10] and in [12] was above 100 µM in each case. In addition, the TGI in experiment [13], in experiment [14] and in [15] was above 100 µM throughout.

In the case of `O=c1[nH]c(=O)n(C2CC(O)C(CO)O2)cc1OCCc1ccccc1` (configuration not stated), the TGI in experiment [1], in [2], in [3], in [4], in [6] and in [7] was above 100 µM throughout. The TGI in experiment [16], in experiment [8], in [9], in experiment [10], in [11] and in experiment [12] was above 100 µM throughout. In addition, the TGI in experiment [14] and in experiment [15] was above 100 µM each time.

As for `N#Cc1nc(CSCc2ccccc2)oc1N`, the TGI in [1], in experiment [2], in experiment [4], in [5], in experiment [6] and in [7] was above 100 µM in each case. Further, the TGI in experiment [16], in [8], in [9], in experiment [11], in experiment [12] and in experiment [13] was above 100 µM each time. In addition, the TGI in experiment [14] and in experiment [15] was above 100 µM each time.

Take `CSc1ccccc1P(c1ccccc1SC)c1ccccc1SC`: the TGI in experiment [1], in [2], in experiment [3], in [4], in experiment [5] and in experiment [6] was above 100 µM throughout. Moreover, the TGI in experiment [7], in experiment [8], in experiment [9], in [10], in experiment [11] and in experiment [12] was above 100 µM in each case. Also, the TGI in experiment [13], in experiment [14] and in experiment [15] was above 100 µM in each case.

As to `CCCCC1Cc2ccccc2-c2n1c1ccccc1[n+]2C` (configuration not stated), the TGI in experiment [1] was above 100 µM; in [2], 81.5 µM; in [3], 14 µM; in experiment [4], above 100 µM; in experiment [5] it was above 100 µM; in experiment [6] it was 42.5 µM. Also, the TGI in experiment [7], in experiment [16], in experiment [8], in experiment [11], in experiment [12] and in experiment [13] was above 100 µM each time. Further, the TGI in experiment [14] and in [15] was above 100 µM throughout.

Regarding `Cc1c(/C=N/NC(=S)Nc2cccc(Cl)c2)c(=O)n(-c2ccccc2)n1C`, the TGI was 43.8 µM in experiment [1]; 33.6 µM in experiment [2]; above 100 µM in [3]; 44.6 µM in experiment [4]; 31.7 µM in [5]; 82.3 µM in [6]. Moreover, the TGI in [7] is above 100 µM; in experiment [16] it was 29.5 µM; in experiment [8], 40.1 µM; in experiment [10], 37.1 µM; in experiment [12] it was above 100 µM; in experiment [13], above 100 µM. In addition, the TGI in [14] stood at 26.9 µM; in experiment [15], 37.5 µM.

Take `COC(=O)CCC1(C)C2CCC1(C)/C(=N/O)C2` (configuration not stated): the TGI in experiment [1], in [2], in [3], in [4], in experiment [6] and in experiment [7] was above 100 µM each time. For the same compound, the TGI in experiment [16], in experiment [8], in experiment [9], in experiment [10], in experiment [11] and in experiment [12] was above 100 µM each time. The TGI in experiment [13], in experiment [14] and in experiment [15] was above 100 µM each time.

As for `Cc1ccc(N/C(Sc2ccccc2)=C(/C(Cl)=C(Cl)Cl)[N+](=O)[O-])c(C)c1`, the TGI was 33.2 µM in [1]; above 100 µM in experiment [2]; 64.8 µM in experiment [3]; 26.7 µM in experiment [4]; 45.8 µM in experiment [5]; 68.7 µM in [6]. Moreover, the TGI stood at 27.7 µM in [7]; 59.7 µM in experiment [8]; 34 µM in experiment [9]; 54 µM in experiment [10]; 23 µM in experiment [11]; 76.1 µM in experiment [12]. The TGI was 36.7 µM in experiment [13], 59.7 µM in experiment [14] and above 100 µM in [15].

In the case of `COc1ccc(N)c(C(O)CCNC(C)=O)c1` (configuration not stated), the TGI in experiment [1], in experiment [2], in experiment [3], in [4], in experiment [5] and in experiment [6] was above 100 µM each time. Also, the TGI in experiment [7], in experiment [16], in experiment [8], in experiment [10], in experiment [11] and in experiment [12] was above 100 µM in each case. For the same compound, the TGI in experiment [13] and in experiment [15] was above 100 µM throughout.

In the case of `O=c1[nH]c(=O)n(C2CC(O)C(CO)O2)cc1NN=NCCc1ccccc1` (configuration not stated), the TGI in [1], in experiment [2], in experiment [3], in [4], in experiment [6] and in experiment [7] was above 100 µM in each case. Also, the TGI in experiment [16], in experiment [8], in [9], in experiment [10], in experiment [11] and in experiment [12] was above 100 µM each time. Also, the TGI in experiment [14] and in experiment [15] was above 100 µM in each case.

As for `O=S(=O)(C(=Ic1ccccc1)S(=O)(=O)C(F)(F)C(F)(F)C(F)(F)C(F)(F)F)C(F)(F)C(F)(F)C(F)(F)C(F)(F)F`, the TGI in experiment [1] came to 55.4 µM; in experiment [2] it was 56.9 µM; in experiment [3], 86.4 µM; in [4], 29.5 µM; in [5], 23.1 µM; in experiment [6], 39.7 µM. Also, the TGI in [7] came out at 36.8 µM; in experiment [8], 28.2 µM; in experiment [9], 26.1 µM; in experiment [10], 28.5 µM; in experiment [11], 30.9 µM; in experiment [12] it was 18.1 µM. Also, the TGI in experiment [13] was 20.5 µM; in experiment [14], 30.7 µM; in experiment [15], 19.3 µM.

Turning to `CC1=C(C(=O)N[C@@H](Cc2ccccc2)C(=O)O)N2C(=O)[C@@H](NC(=O)[C@@H](N)CC(C)C)[C@H]2SC1`, the TGI in experiment [1], in [2], in experiment [3], in experiment [4], in [5] and in experiment [7] was above 100 µM in each case. The TGI in experiment [16], in experiment [8], in [9], in [10], in [11] and in experiment [12] was above 100 µM each time. Besides, the TGI in experiment [13] and in experiment [15] was above 100 µM each time.

Turning to `COc1ccc(C2=C(Cl)c3cc(OC)c(OC)cc3C2=O)cc1OC`, the TGI worked out at 36.5 µM in [1]; 87.4 µM in experiment [2]; 87.1 µM in [3]; 4 µM in experiment [5]; 26.7 µM in experiment [6]; 29.4 µM in experiment [7]. Further, the TGI was 18 µM in experiment [16]; 18.1 µM in experiment [8]; 26 µM in [9]; above 100 µM in [10]; 33.9 µM in experiment [11]; above 100 µM in [12]. In addition, the TGI amounted to 31.3 µM in [13], 30.4 µM in experiment [14] and 17.2 µM in [15].

For `Nc1ccc(-c2ncc3cc(-c4cccc(-c5cc6cnc(-c7ccc(N)cc7)nc6c6ccccc56)c4)c4ccccc4c3n2)cc1`, the TGI in [1], in [2], in experiment [3], in experiment [4], in experiment [5] and in [6] was above 100 µM in each case. Moreover, the TGI in experiment [7], in experiment [16], in [8], in experiment [10], in [11] and in experiment [12] was above 100 µM each time. The TGI in experiment [13], in experiment [14] and in experiment [15] was above 100 µM in each case.

In the case of `COC(=O)c1ccccc1/C=C1/Cc2cccc(C)c2C1=O`, the TGI in experiment [1], in experiment [2], in experiment [3], in [4], in experiment [5] and in [6] was above 100 µM each time. In addition, the TGI in experiment [7], in [16], in [9], in experiment [11], in [12] and in experiment [13] was above 100 µM throughout. Moreover, the TGI in experiment [14] and in experiment [15] was above 100 µM throughout.

Regarding `C[C@]12CCC3c4ccc(O)cc4CC[C@H]3C1CC(=O)N(N)C2=O` (some centres not stated), the TGI in [1], in [2], in experiment [4], in experiment [5], in experiment [6] and in [7] was above 100 µM each time. Also, the TGI in experiment [16], in [8], in [9], in experiment [10], in experiment [11] and in experiment [12] was above 100 µM in each case. In addition, the TGI in experiment [13], in experiment [14] and in experiment [15] was above 100 µM in each case.

In the case of `c1cc(-c2csc(-c3ccsc3)c2)cs1`, the TGI in experiment [1], in [2], in experiment [3], in experiment [4], in experiment [5] and in [6] was above 100 µM each time. The TGI in experiment [7], in experiment [16], in [8], in [10], in [11] and in [12] was above 100 µM throughout. For the same compound, the TGI in [13], in [14] and in experiment [15] was above 100 µM throughout.

Regarding `O=C(c1ccco1)C1CC(c2ccc3ccccc3c2O)=NN1` (configuration not stated), the TGI in experiment [1], in [2], in [3], in experiment [4], in experiment [5] and in [6] was above 100 µM throughout. Also, the TGI in experiment [7], in experiment [16], in experiment [8], in experiment [9], in experiment [11] and in [12] was above 100 µM throughout. For the same compound, the TGI in experiment [13], in experiment [14] and in experiment [15] was above 100 µM in each case.

The values above are taken from PubChem BioAssay (NCI).
